Laboratory results taken from PMC12117998, “First Steps toward the Design of Peptides that Influence the Intracellular Palmitoylation Machinery” (Chembiochem, 2025).
No end group written: not given here.

Legend:
HFF‐1 cells [1] = assay: Cell viability assay (resazurin); format: cell-based, human; details: HFF‐1, 24 h, CF‐labeled peptides, n = 3 (Figure 3C)
Method: (§1) HeLa (13,000), MDA‐MB‐231 (26,000), HFF‐1 (16,000) cells, mEGFP‐HRas (18,000), and SW480 and SW620 (15,000) were seeded into a 96‐well plate. Cells were treated with suitable peptide concentrations diluted in the corresponding serum‐free culture medium. After 24 h incubation under standard growth conditions, the cells were washed once with PBS. The positive control was treated for 10 min with 70% EtOH. To test the viability, cells were treated with a resazurin solution (In Vitro Toxicology Assay Kit, resazurin based, Sigma) and incubated for a further 1–2 h. The product resorufin was measured at 595 nm (λex = 550 nm) on an infinite M200 plate reader (Tecan) and normalized to the untreated negative control cells.

HeLa cells [2] = assay: Cell viability assay (resazurin); format: cell-based; details: 24 h; for cytotoxicity (cell viability): CF‐labeled peptides, n = 3 (Figure 3A); for concentration up to which peptide is not toxic (cell viability): unlabeled peptides in serum-free medium, untreated control = 100%, n = 3 (Figure 2A)
Method: as §1

MDA‐MB‐231 [3] = assay: Cell viability assay (resazurin); format: cell-based; details: MDA‐MB‐231, 24 h, CF‐labeled peptides, n = 3 (Figure 3B)
Method: as §1

HeLa cells [4] = assay: Cellular uptake by flow cytometry; format: cell-based; details: 30 min, serum-free medium, 37 °C, flow cytometry
Method: (§2) HeLa (90,000), MDA‐MB‐231 (120,000), and HFF‐1 (125,000) cells were seeded into a 24‐well plate. Cells were treated with the desired concentration of CF‐labeled peptide diluted in the appropriate serum‐free medium for 30 min at 37 °C and 5% CO2. Afterward, cells were washed once with PBS, detached from the plate using indicator‐free trypsin/EDTA and resuspended in indicator‐free culture medium. The cell mixture was measured on the Guava easyCyte flow cytometer (Merck) using the GRN‐B (520/30) detector.
CMA was synthesized and kindly provided by Azizi et al.^[ [33] ^] Cells were either treated with 20 μM CMA diluted in serum‐free media or 0.1% DMSO diluted in serum‐free media for 6 h at 37 °C with 5% CO2. Next, cells were washed once with serum‐free medium and 5 μM CF‐labeled peptides diluted in serum‐free medium were incubated for 30 min. Control cells were only treated with dimethylsulfoxide (DMSO) or 20 μM CMA.
For the preincubation assay, cells were either treated with 5 μM DC‐2 diluted in serum‐free medium or only serum‐free medium for 30 min at 37 °C and 5% CO2. Afterward, cells were washed once with serum‐free medium and treated with 5 μM CF‐labeled DC‐2 for 30 min at 37 °C and 5% CO2.
To block cell surface thiols, cells were incubated with either serum‐free medium or 1.2 mM 5,5′‐dithiobis‐(2‐nitrobenzoic acid) (Ellman's reagent, DTNB) diluted in serum‐free medium for 5 min. Next, untreated cells were treated with 1 μM of CF‐labeled DC‐2 or DC‐2dis diluted in serum‐free medium and DTNB‐pretreated cells with 1 μM of CF‐labeled DC‐2 or DC‐2dis and 1.2 mM DTNB in serum‐free medium for 30 min at 37 °C and 5% CO2 as described by Aubry et al.^[ [47] ^]

human 6His‐ZDHHC7 = molecular target: T1, human 6His‐ZDHHC7 (Homo sapiens, UniProt Q9NXF8); assay: In vitro palmitoylation assay (LC‐MS); format: biochemical; details: 50 μM CF‐labeled peptide, 37 °C, LC‐MS (Figure 4); for palmitoylation in presence of ZDHHC7: 100 nM ZDHHC7, 100 μM palmitoyl‐CoA, pH 7.0, 2 h; for palmitoylation in absence of ZDHHC7 (auto‐palmitoylation): 100 μM palmitoyl‐CoA, no ZDHHC7, pH 7.0, 2 h
T1 construct: 6His; purchased Proteintech
T1 sequence (Q9NXF8 1-308): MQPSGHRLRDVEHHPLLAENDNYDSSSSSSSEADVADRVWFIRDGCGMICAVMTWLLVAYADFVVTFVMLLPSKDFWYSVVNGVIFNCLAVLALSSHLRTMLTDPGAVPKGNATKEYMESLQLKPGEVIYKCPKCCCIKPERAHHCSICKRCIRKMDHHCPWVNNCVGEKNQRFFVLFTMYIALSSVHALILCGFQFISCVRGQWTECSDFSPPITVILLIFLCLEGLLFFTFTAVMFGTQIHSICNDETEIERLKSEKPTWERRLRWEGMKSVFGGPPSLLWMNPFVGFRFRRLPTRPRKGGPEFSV
Method: The 50 μM CF‐labeled peptides were incubated with 100 nM human 6His‐ZDHHC7 (Proteintech) and 100 μM palmitoyl‐CoA (Santa Cruz Biotechnology) in reaction buffer (50 mM HEPES, 150 mM NaCl, 1 mM EDTA, 1 mM (tris(2‐carboxyethyl)phosphine) (TCEP), 0.3 mM DDM, pH 7.0) for 2 h at 37 °C. Control reactions without ZDHHC7 or palm‐CoA were incubated with the appropriate volume of reaction buffer. Afterward, the reaction was centrifuged for 5 min at 13000 rpm. The precipitate was dissolved in DMSO/ACN (3:2, v/v). To enrich the peptide from the supernatant, C8 ZipTips were used. All samples were analyzed on the LC MS‐8060 triple quadrupole ESI‐MS (Shimadzu). The fluorescence intensity (λex = 493 nm, λem = 517 nm) of the samples was measured on an EC 160/2 NUCLEODUR 300‐5 C18 ec column using linear gradients from 20% to 70 % ACN in ddH2O + 0.1% FA over 7 min.

MCF‐10 A breast spheroid = assay: Confocal time‐lapse imaging of spheroids; format: cell-based, human; details: 10‐day‐old MCF‐10 A spheroids, 10 μM CF‐labeled peptide, imaged every 45 s for 20 min, n ≥ 2 (Figure 7)
Method: Spheroids from single MCF10‐A cells were generated for 10 days as described in ref. [66]. For further analyses, spheroids were isolated from EHS matrix through incubation in 2 mL ice‐cold cell recovery solution (BD Biosciences) for 30 min (4 °C). Next, spheroids were washed with fresh EGF‐free medium and individually picked under a stereo microscope for seeding onto 35 mm cell culture dishes with microscopic glass bottoms (Cover Slip, 24 × 24 mm, #1.5 HP, Menzel‐Gläser). Spheroids adhered to glass substrates for 15 min (RT) and were subsequently covered with 0.9 mL fresh EGF‐free growth medium.
Live‐cell imaging was performed at 37 °C and 5% CO2 (cell incubator XL, Zeiss, Germany) with an inverse confocal laser scanning microscope (LSM880 with Airyscan detector) that used a 40x LD C‐Apochromat water immersion objective (NA 1.1, Zeiss). Before addition of peptides, control images were taken. Subsequently, peptide was added to a final concentration of 10 μM and spheroids immediately imaged every 45 s for 20 min. The observed plane was at the equatorial plane of a spheroid, where the diameter was largest. Images were taken with Fast Airyscan and subsequent processing using the ZEN 2.3 black software (Zeiss). Z‐stacks were taken right after the time series in 1 μm steps with the same microscopic settings.

MDA‐MB‐231 [5] = assay: Cellular uptake by flow cytometry; format: cell-based; details: MDA‐MB‐231, 30 min, 5 μM CF‐labeled peptides, serum-free medium, 37 °C, n ≥ 3 (Figure 3E)
Method: as §2

HeLa cells [6] = assay: Live‐cell fluorescence imaging of peptide uptake; format: cell-based; details: 30 min, 5 μM CF‐labeled peptides, confocal laser scanning microscopy (Figure 3G)
Method: HeLa (40,000), MDA‐MB‐231 (30,000), or HFF1 (55,000) cells were seeded into an 8‐well ibidi. Cells were treated for 30 min with 5 μM of CF‐labeled peptide diluted in the appropriate serum‐free media. The cell nuclei were stained with the Hoechst 33342 nuclear dye for the last 10 min of the total incubation time. Afterward, cells were washed three to four times using serum‐free medium and finally, medium containing FBS was added for the microscopy. Live fluorescence microscopy analyses were performed on the LSM 980 with Airyscan 2 Inverse Confocal Laser Scanning Microscope (Carl Zeiss) on a 63X Plan‐Apochromat oil objective (NA 1.4, Zeiss) at 37 °C and 5% CO2 or on the BZ‐X810 (Keyence) using a 60X Plan‐Apochromat oil objective (NA 1.4, Keyence). Images were cropped and processed using Fiji.
Hela cells (15,000) were seeded into a 96-well plate. Cells were treated with suitable peptide concentrations diluted in the corresponding serum-free culture medium. After 1 h peptide incubation under standard growth conditions, the positive control was either directly treated with lysis solution or the supernatant was exchanged for serum-free culture medium and the plate was incubated for further 5 h under growing conditions. The CytoTox-ONE™ Reagent was added and incubated at RT for 10 minutes. Finally, the Stop Solution was added and the fluorescence was measured at 595 nm (λex = 550 nm) on an infinite M200 plate reader (Tecan) and normalized to the positive control cells.
Red blood cells (RBCs) were washed three times in PBS by centrifug ing at 4 °C and 3,000 x g for 5 min and diluted to 5% in PBS. The desired peptide concentrations diluted in PBS were added into a 96-well plate. Next, 5% RBCs in PBS were added into the wells and incubated for 24 h at 37 °C and 5% CO2. As a positive control, RBCs were mixed with 10% Triton X-100 in PBS. […] Lastly, the absorption (λ=560 nm) was measured on the infinite M200 plate reader (Tecan). For the evaluation, the measured absorption of the Triton-X-100 treatment was set to a hemolysis rate […]

HFF‐1 cells [7] = assay: Cellular uptake by flow cytometry; format: cell-based, human; details: HFF‐1, 30 min, 5 μM CF‐labeled peptides, serum-free medium, 37 °C, n ≥ 3 (Figure 3F)
Method: as §2

[8] = 5 μM CF‐labeled peptides, n ≥ 3 (Figure 3D, 5C)
[9] = 10 μM CF‐labeled peptides, n = 3 (Figure 2B)

GLRKRLRKFRNK-NH2 [sC18*, cell‐penetrating peptide (CPP) sC18*, origin CAP18, control peptide, reference compound]
cytotoxicity (cell viability) (HFF‐1 cells [1]): not toxic | cytotoxicity (cell viability) (HeLa cells [2]): not toxic | concentration up to which peptide is not toxic (cell viability) (HeLa cells [2]): > 100 µM | cytotoxicity (cell viability) (MDA‐MB‐231 [3]): not toxic

GLRKRLRKFRNKEFDHHCPW-NH2 [DC‐4, CPP sC18* fused to the DHHC motif derived from ZDHHC5]
cellular uptake (in words) (HeLa cells [4]; [8]): overall weaker uptake | cellular uptake (in words) (HeLa cells [4]; [9]): internalized to less extent | palmitoylation in presence of ZDHHC7 (human 6His‐ZDHHC7): only a minor peak of palmitoylated DC‐4 | palmitoylation in absence of ZDHHC7 (auto‐palmitoylation) (human 6His‐ZDHHC7): no auto‐palmitoylation

GLRKRLRKFRNKKMDHHAPW-NH2 [DA‐1, control peptide in which the cysteine of the DHHC motif of DC‐2 was exchanged by an alanine]
infiltration of basement membrane (BM)‐covered spheroids (MCF‐10 A breast spheroid): did not further enter cells of the spheroid | cytotoxicity (cell viability) (HFF‐1 cells [1]): not toxic | cytotoxicity (cell viability) (HeLa cells [2]): not toxic | concentration up to which peptide is not toxic (cell viability) (HeLa cells [2]): > 100 µM | cytotoxicity (cell viability) (MDA‐MB‐231 [3]): not toxic

GLRKRLRKFRNKRMDHHCPW-NH2 [DC‐11, CPP sC18* fused to the DHHC motif derived from ZDHHC21]
cellular uptake (in words) (MDA‐MB‐231 [5]): internalized to a higher extent compared to DC‐4 | cellular uptake (in words) (HeLa cells [4]; [8]): internalized to a higher extent compared to DC‐4 | cellular uptake (in words) (HeLa cells [4]; [9]): highest uptake | palmitoylation in presence of ZDHHC7 (human 6His‐ZDHHC7): palmitoylated | palmitoylation in absence of ZDHHC7 (auto‐palmitoylation) (human 6His‐ZDHHC7): auto‐palmitoylation | intracellular uptake pattern (HeLa cells [6]): diffuse cytosolic pattern | cellular uptake (in words) (HFF‐1 cells [7]): internalized to a higher extent compared to DC‐4
